Data as given in PubChem BioAssay AID328 (DTP/NCI, 2004).
Several values for one entry are separate records, joined by “and”; a condition that tells them apart may be missing. Identical values can stand only once. Toxic doses and inconclusive results are not listed. Non-standard residues stand in square brackets, D forms with d. Residues, ends and D or L forms follow the SMILES beside them. ξ: configuration not given here. ξPhe(4-N(CH2CH2Cl)2) = NC(Cc1ccc(N(CCCl)CCCl)cc1)C(=O)O

Test system: BDF1 mice, P388 leukemia ip, median survival T/C
Assay: NCI In Vivo Anticancer Drug Screen. Data for tumor model P388 Leukemia (intraperitoneal) in B6D2F1 (BDF1) mice
Details: endpoint: median survival time, higher = longer survival
Outline: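 Reported as T/C, where T is the survival measurement in dosed animals and C the same measurement in vehicle controls.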

[1] = dose: 12.5 mg/kg/injection, schedule: Q01DX009 (ip), vehicle: saline with Tween-80
[2] = dose: 25.0 mg/kg/injection, schedule: Q01DX009 (ip), vehicle: saline with Tween-80
[3] = dose: 50.0 mg/kg/injection, schedule: Q01DX009 (ip), vehicle: saline with Tween-80
[4] = dose: 100.0 mg/kg/injection, schedule: Q04DX003 (ip), vehicle: saline with Tween-80
[5] = dose: 200.0 mg/kg/injection, schedule: Q04DX003 (ip), vehicle: saline with Tween-80
[6] = dose: 100.0 mg/kg/injection, schedule: Q04DX002 (ip), vehicle: saline with Tween-80
[7] = dose: 200.0 mg/kg/injection, schedule: Q04DX002 (ip), vehicle: saline with Tween-80
[8] = dose: 400.0 mg/kg/injection, schedule: Q04DX002 (ip), vehicle: saline with Tween-80
[9] = dose: 100.0 mg/kg/injection, schedule: Q01DX009 (ip), vehicle: saline with Tween-80
[10] = dose: 12.5 mg/kg/injection, schedule: Q01DX009 (ip), vehicle: water
[11] = dose: 200.0 mg/kg/injection, schedule: Q01DX009 (ip), vehicle: saline with Tween-80

Structure (SMILES): Cc1nc2n(c1/C=N/NC(N)=S)CCS2
- T/C (dose: 25.0 mg/kg/injection, schedule: Q01DX001 (ip), vehicle: Klucel (hydroxypropylcellulose) (HPC)): 102 % of control
- T/C (dose: 50.0 mg/kg/injection, schedule: Q01DX001 (ip), vehicle: Klucel (hydroxypropylcellulose) (HPC)): 98 % of control
- T/C (dose: 100.0 mg/kg/injection, schedule: Q01DX001 (ip), vehicle: Klucel (hydroxypropylcellulose) (HPC)): 98 % of control

Structure (SMILES): CN(C)c1ccc(C2NC(=S)NC3=C2CCCC3)cc1 (stereo not given)
- T/C [1]: 108 % of control
- T/C [2]: 111 % of control
- T/C [3]: 88 % of control and 109 % of control

Structure (SMILES): CCOC(=O)C(Cc1ccc(N(CCCl)CCCl)cc1)NC(=O)C(CCC(=O)O)NC(=O)C(CO)NC(=O)C(CCC(=O)O)NC(=O)C(N)CO (stereo not given) (H-SESE[ξPhe(4-N(CH2CH2Cl)2)]-OEt; configuration not given here)
- T/C (dose: 5.0 mg/kg/injection, schedule: Q04DX003 (ip), vehicle: water): 97 % of control
- T/C (dose: 10.0 mg/kg/injection, schedule: Q04DX003 (ip), vehicle: water): 99 % of control
- T/C (dose: 20.0 mg/kg/injection, schedule: Q04DX003 (ip), vehicle: water): 100 % of control
- T/C (dose: 40.0 mg/kg/injection, schedule: Q04DX003 (ip), vehicle: water): 100 % of control

Structure (SMILES): Cc1ccc2c(c1)nc1c3ccccc3nnn21
- T/C (dose: 50.0 mg/kg/injection, schedule: Q04DX003 (ip), vehicle: saline with Tween-80): 112 % of control
- T/C [4]: 104 % of control
- T/C [5]: 107 % of control

Structure (SMILES): CCCCN=C(N)c1ccc(NC(=O)c2ccc(C(=O)Nc3ccc(C(N)=NCCCC)cc3)cc2)cc1
- T/C (dose: 15.0 mg/kg/injection, schedule: Q04DX003 (ip), vehicle: saline with Tween-80): 122 % of control
- T/C (dose: 26.0 mg/kg/injection, schedule: Q04DX003 (ip), vehicle: saline with Tween-80): 154 % of control
- T/C (dose: 30.0 mg/kg/injection, schedule: Q01DX009 (ip), vehicle: saline with Tween-80): 196 % of control
- T/C (dose: 30.0 mg/kg/injection, schedule: Q04DX003 (ip), vehicle: saline with Tween-80): 158 % of control and 181 % of control
- T/C (dose: 40.0 mg/kg/injection, schedule: Q04DX003 (ip), vehicle: saline with Tween-80): 166 % of control and 181 % of control
- T/C (dose: 45.0 mg/kg/injection, schedule: Q04DX003 (ip), vehicle: saline with Tween-80): 179 % of control
- T/C (dose: 60.0 mg/kg/injection, schedule: Q04DX003 (ip), vehicle: saline with Tween-80): 163 % of control and 183 % of control and 186 % of control
- T/C (dose: 90.0 mg/kg/injection, schedule: Q04DX003 (ip), vehicle: saline with Tween-80): 204 % of control

Structure (SMILES): COC(=O)/C=C/CCBr
- T/C [6]: 104 % of control
- T/C [7]: 109 % of control
- T/C [8]: 114 % of control

Structure (SMILES): Nc1ncnc2c1nnn2C1CC(CO)C(O)C1O (stereo not given)
- T/C (dose: 67.0 mg/kg/injection, schedule: Q01DX009 (ip), vehicle: saline with Tween-80): 163 % of control
- T/C (dose: 75.0 mg/kg/injection, schedule: Q01DX009 (ip), vehicle: saline with Tween-80): 153 % of control
- T/C [9]: 168 % of control

Structure (SMILES): CCN(CC)CCCC(C)NC/C=C/CNC(C)CCCN(CC)CC (stereo not given)
- T/C (dose: 0.78 mg/kg/injection, schedule: Q01DX009 (ip), vehicle: water): 99 % of control
- T/C (dose: 1.56 mg/kg/injection, schedule: Q01DX009 (ip), vehicle: water): 91 % of control
- T/C (dose: 3.12 mg/kg/injection, schedule: Q01DX009 (ip), vehicle: water): 91 % of control
- T/C [10]: 86 % of control
- T/C (dose: 25.0 mg/kg/injection, schedule: Q01DX009 (ip), vehicle: water): 91 % of control
- T/C (dose: 50.0 mg/kg/injection, schedule: Q01DX009 (ip), vehicle: water): 99 % of control

Structure (SMILES): O=S(=O)(O)O.[NH-]CC(N)=O.[NH-]CC(N)=O.[Ni+2]
- T/C (dose: 6.25 mg/kg/injection, schedule: Q01DX009 (ip), vehicle: water): 115 % of control
- T/C [10]: 110 % of control
- T/C (dose: 12.5 mg/kg/injection, schedule: Q04DX003 (ip), vehicle: water): 100 % of control
- T/C (dose: 25.0 mg/kg/injection, schedule: Q04DX003 (ip), vehicle: water): 90 % of control
- T/C (dose: 50.0 mg/kg/injection, schedule: Q04DX003 (ip), vehicle: water): 109 % of control

Structure (SMILES): Cc1cccc2cc3c(ccc4ccccc43)c[n+]12
- T/C (dose: 1.0 mg/kg/injection, schedule: Q01DX009 (ip), vehicle: Klucel (hydroxypropylcellulose) (HPC)): 109 % of control
- T/C (dose: 2.0 mg/kg/injection, schedule: Q01DX009 (ip), vehicle: Klucel (hydroxypropylcellulose) (HPC)): 100 % of control
- T/C (dose: 4.0 mg/kg/injection, schedule: Q01DX009 (ip), vehicle: Klucel (hydroxypropylcellulose) (HPC)): 100 % of control
- T/C (dose: 8.0 mg/kg/injection, schedule: Q01DX009 (ip), vehicle: Klucel (hydroxypropylcellulose) (HPC)): 113 % of control

Structure (SMILES): C[C@]12CC[C@H]3[C@@H](CC[C@H]4N(CCCl)CCC[C@]34C)[C@@H]1CC[C@@H]2O
- T/C (dose: 12.5 mg/kg/injection, schedule: Q01DX001 (ip), vehicle: saline): 105 % of control
- T/C (dose: 25.0 mg/kg/injection, schedule: Q01DX001 (ip), vehicle: saline): 109 % of control

Structure (SMILES): CC(CCCc1ccccc1)(C(=O)O)C(=O)O
- T/C [6]: 96 % of control
- T/C [7]: 98 % of control
- T/C [8]: 102 % of control

Structure (SMILES): CC/C(=C(\CC)c1ccc(OC)cc1)c1ccc(O)cc1
- T/C (dose: 100.0 mg/kg/injection, schedule: Q01DX009 (ip), vehicle: saline sonified): 105 % of control
- T/C [4]: 109 % of control
- T/C (dose: 200.0 mg/kg/injection, schedule: Q01DX009 (ip), vehicle: saline sonified): 110 % of control
- T/C [5]: 104 % of control
- T/C (dose: 400.0 mg/kg/injection, schedule: Q01DX009 (ip), vehicle: saline sonified): 115 % of control
- T/C (dose: 400.0 mg/kg/injection, schedule: Q04DX003 (ip), vehicle: saline with Tween-80): 95 % of control

Structure (SMILES): COc1cc[n+]([O-])cc1
- T/C (dose: 100.0 mg/kg/injection, schedule: Q04DX003 (ip), vehicle: saline): 95 % of control
- T/C (dose: 200.0 mg/kg/injection, schedule: Q04DX003 (ip), vehicle: saline): 95 % of control
- T/C (dose: 400.0 mg/kg/injection, schedule: Q04DX003 (ip), vehicle: saline): 100 % of control

Structure (SMILES): CC(=O)Nc1ccc(S(=O)(=O)NNC(=O)C(=O)Nc2cccc(Cl)c2)cc1
- T/C (dose: 50.0 mg/kg/injection, schedule: Q01DX005 (ip), vehicle: saline with Tween-80): 96 % of control
- T/C (dose: 100.0 mg/kg/injection, schedule: Q01DX005 (ip), vehicle: saline with Tween-80): 89 % of control
- T/C (dose: 200.0 mg/kg/injection, schedule: Q01DX005 (ip), vehicle: saline with Tween-80): 96 % of control

Structure (SMILES): CN=S(=O)(OCC1CCC1COS(=O)(=NC)c1ccc(C)cc1)c1ccc(C)cc1 (stereo not given)
- T/C [1]: 109 % of control
- T/C (dose: 12.5 mg/kg/injection, schedule: Q01DX009 (ip), vehicle: saline): 93 % of control
- T/C [2]: 100 % of control
- T/C (dose: 25.0 mg/kg/injection, schedule: Q01DX009 (ip), vehicle: saline): 93 % of control
- T/C [3]: 90 % of control and 120 % of control
- T/C (dose: 50.0 mg/kg/injection, schedule: Q01DX009 (ip), vehicle: saline): 90 % of control
- T/C [9]: 107 % of control and 114 % of control
- T/C (dose: 100.0 mg/kg/injection, schedule: Q01DX009 (ip), vehicle: saline): 93 % of control
- T/C [11]: 116 % of control

Structure (SMILES): CSc1ncc(CO)c(N)n1
- T/C (dose: 100.0 mg/kg/injection, schedule: Q01DX009 (ip), vehicle: Klucel (hydroxypropylcellulose) (HPC)): 91 % of control
- T/C (dose: 200.0 mg/kg/injection, schedule: Q01DX009 (ip), vehicle: Klucel (hydroxypropylcellulose) (HPC)): 95 % of control
- T/C (dose: 400.0 mg/kg/injection, schedule: Q01DX009 (ip), vehicle: Klucel (hydroxypropylcellulose) (HPC)): 87 % of control

Structure (SMILES): COc1cc(-c2ccc(O)cc2)c(OC)c(O)c1-c1ccc(O)c(O)c1
- T/C (dose: 1.25 mg/kg/injection, schedule: Q01DX009 (ip), vehicle: Klucel (hydroxypropylcellulose) (HPC)): 97 % of control
- T/C (dose: 2.5 mg/kg/injection, schedule: Q01DX009 (ip), vehicle: Klucel (hydroxypropylcellulose) (HPC)): 96 % of control
- T/C (dose: 5.0 mg/kg/injection, schedule: Q01DX009 (ip), vehicle: Klucel (hydroxypropylcellulose) (HPC)): 98 % of control
- T/C (dose: 10.0 mg/kg/injection, schedule: Q01DX009 (ip), vehicle: Klucel (hydroxypropylcellulose) (HPC)): 95 % of control
- T/C (dose: 20.0 mg/kg/injection, schedule: Q01DX009 (ip), vehicle: Klucel (hydroxypropylcellulose) (HPC)): 97 % of control
- T/C (dose: 40.0 mg/kg/injection, schedule: Q01DX009 (ip), vehicle: Klucel (hydroxypropylcellulose) (HPC)): 97 % of control

Structure (SMILES): CCC(c1ccc(O)cc1)C(CC)c1ccc(OC)cc1 (stereo not given)
- T/C [3]: 104 % of control
- T/C [9]: 118 % of control
- T/C [11]: 109 % of control
